The nature of data set [1]: Ketoconazole concentration in plasma and ocular tissues after single topical ocular instillation. It counts as in vivo, Sprague Dawley rats. Conditions: for concentration at 5 min / concentration at 120 min / concentration at 30 min: Sprague Dawley, rat, topical; for concentration at 120 min: 120 min post-dose; for concentration at 30 min: 30 min post-dose. As for the experimental part: The mixture was stirred at 40 °C. Subsequently, 0.040 mL of 1 M hydrochloric acid was added, and the mixture was stirred at 40 °C until it was completely dissolved. 0.250 mL of hydroxypropyl beta-cyclodextrin (HPβCD) was added and vortexed and stirred at 40 °C until clear. 0.005 mL of 1 M sodium hydroxide was added to adjust the pH to 6.5-7.0 while stirring magnetically at 40 °C, and 0.038 mL of water was added, vortexed, and stirred at 40 °C until clear.
Each tissue was then homogenized using an Ultrasonic Cell Crusher for 5 seconds. The cornea and retina homogenates were sonicated for 10 min, while the vitreous was sonicated for 30 min at 0 °C prior to bioanalysis. The ocular tissue homogenates were stored in a -80 °C freezer before bioanalysis.
All samples underwent protein precipitation for pharmacokinetic analysis. Plasma and three types of tissue homogenate samples (50 μL each) were treated with 5 μL of methanol and then quenched with a 200 μL methanol and acetonitrile mixture (1:1, v/v) containing 50 ng/mL terfenadine as an internal standard (ISTD). After vortexing for 1 min and centrifuging at 4000 rpm for 15 min, the supernatant was transferred and diluted 10-fold with a methanol/water solution (1:1, v/v, containing 0.1 % formic acid) for LC-MS/MS analysis. The working solution was prepared with a concentration range of 50.0 to 100,000 ng/mL.
The quantitative sample analysis was performed on a Shimadzu LC-20AD (Shimadzu, Japan) - API 4000 mass spectrometer (SCIEX, Canada).

The conditions of data set [2]: humans, cited from earlier work.
For data set [3] the following is noted: in vivo.
Description: (§1) Nine rats were randomly divided into three groups and their body weights were recorded from 254 to 281 g. […] Rats were sacrificed at 5, 30 and 120 min post-dose (n = 3 per time point). Cornea, retina, and vitreous humour samples were collected, washed in saline three times and weighed, while blood samples were taken from the heart puncture. Tissue samples were initially stored on dry ice, while the blood samples were centrifuged at 4 °C and 6000 rpm for 10 min. Subsequently, the plasma samples were prepared and also stored on dry ice. Ultimately, all samples were cryopreserved in a -80 °C freezer after harvest.
(§2) Rat plasma (400 RL, 44.4 LL/rat at each time point) was pooled from 3-time points utilizing the equal volume method and subsequently precipitated with acetonitrile containing 0.1 % formic acid at a ratio of 1:3. Homogenate samples of rat cornea, retina, and vitreous humour (600 L, 66.7 LL /rat) were pooled from three time points individually utilizing the equal volume and transferred into a 15 mL centrifuge tube and subjected to precipitation with acetonitrile containing 0.1 % formic acid at the same ratio of 1:3. Following centrifugation, the supernatant was evaporated under a stream of nitrogen gas. The residues from plasma and rat retina were reconstituted with 150 L of 10 % acetonitrile in H2O (with 0.1 % formic acid), while the residues from the rat cornea and vitreous humour were reconstituted with 100 L of 10 % acetonitrile in H2O (0.1 % formic acid). Four types of blank samples were processed in a similar manner. Ultimately, 10,L samples of each tissue were injected for analysis using the Ultimate 3000-Q-Exactive Plus system.
(§3) Mobile phase A consisted of water containing 0.1 % formic acid, while mobile phase B consisted of acetonitrile with 0.1 % formic acid. […] Mass scanning was performed on the Q-Exactive Plus using positive-ion full MS/dd-MS2 mode with a range from m/z 80 to 900. The collision energy was set at 30, 40 and 50 eV. The mass resolution was set as 70,000 for full MS, and 17,500 for dd-MS2 scans, and the mass error limit was set as 5.0 ppm.
A short description of data set [4]: Metabolite identification and profiling in pooled rat plasma, cornea, retina and vitreous humour after eye drop administration. As to conditions: for Relative peak area abundance, COR: pooled rat cornea homogenate (5, 30, 120 min); for Relative peak area abundance, VH: pooled rat vitreous humour homogenate (5, 30, 120 min); for Relative peak area abundance, PLA: pooled rat plasma (5, 30, 120 min).
Description: as §1, §2, §3

[5] abbreviates: plasma, 300 μg per rat, rat plasma, read-out: mean concentration in plasma.
[6] abbreviates: selected ion chromatographic peak areas.

Like-named read-outs stand apart in the source and are kept apart here.

`CC(=O)N1CCN(c2ccc(OCC3COC(Cn4ccnc4)(c4ccc(Cl)cc4Cl)O3)cc2)CC1` (centres unmarked) [Ketoconazole]: the concentration at 5 min turned out to be 416000 ng/g in data set [1] (cornea, 150 μg per eye, rat cornea, left eye, 5 min post-dose, 150 μg per eye, read-out: mean concentration in cornea, left eye); 430000 ng/g in data set [1] (cornea, 150 μg per eye, rat cornea, right eye, 5 min post-dose, 150 μg per eye, read-out: mean concentration in cornea, right eye); 423000 ng/g in data set [1] (cornea, 300 μg per rat, mean ketoconazole concentration in cornea, rat cornea, 5 min post-dose, 300 μg/rat topical ocular); 0.445 µg/mL in data set [1] (plasma, 300 μg per rat, rat plasma, 5 min post-dose, read-out: mean concentration in plasma); 439 ng/g in data set [1] (retina, 150 μg per eye, rat retina, left eye, 5 min post-dose, 150 μg per eye, read-out: mean concentration in retina, left eye); 552 ng/g in data set [1] (retina, 150 μg per eye, rat retina, right eye, 5 min post-dose, 150 μg per eye, read-out: mean concentration in retina, right eye). For the same compound, the concentration at 5 min in data set [1] (retina, 300 μg per rat, mean ketoconazole concentration in retina, rat retina, 5 min post-dose, 300 μg/rat topical ocular) is 4960 ng/g; in data set [1] (vitreous humour, 150 μg per eye, rat vitreous humour, left eye, 5 min post-dose, 150 μg per eye, read-out: mean concentration in vitreous humour, left eye) it was 1120 ng/g; in data set [1] (vitreous humour, 150 μg per eye, rat vitreous humour, right eye, 5 min post-dose, 150 μg per eye, read-out: mean concentration in vitreous humour, right eye), 1180 ng/g; in data set [1] (vitreous humour, 300 μg per rat, mean ketoconazole concentration in vitreous humour, rat vitreous humour, 5 min post-dose, 300 μg/rat topical ocular), 1190 ng/g. The concentration at 120 min in data set [1] (cornea, 300 μg per rat, mean ketoconazole concentration in cornea, rat cornea, mean of left and right eye) stood at 8360 ng/g; in data set [1] (plasma, 300 μg per rat, mean ketoconazole concentration in plasma, rat plasma, 300 μg/rat topical ocular), 0.0384 µg/mL; in data set [1] (setting [5]) it was 0.0384 µg/mL; in data set [1] (retina, 300 μg per rat, mean ketoconazole concentration in retina, rat retina, mean of left and right eye), 94.4 ng/g; in data set [1] (vitreous humour, 300 μg per rat, mean ketoconazole concentration in vitreous humour, rat vitreous humour, mean of left and right eye) it was 116 ng/g. For the same compound, the concentration at 30 min in data set [1] (cornea, 300 μg per rat, rat cornea, mean of left and right eye, read-out: mean concentration in cornea) is 113000 ng/g; in data set [1] (setting [5]), 0.303 µg/mL; in data set [1] (retina, 300 μg per rat, rat retina, mean of left and right eye, read-out: mean concentration in retina), 1470 ng/g; in data set [1] (vitreous humour, 300 μg per rat, rat vitreous humour, mean of left and right eye, read-out: mean concentration in vitreous humour) it was 713 ng/g. Further, the “mean peak plasma concentration” value in data set [1] (rat plasma, 5 min post-dose, 300 μg/rat topical ocular) came to 445 ng/mL. The “biphasic elimination, thereafter” value in data set [2] (after the first 10 h) is reported as 8 h. Also, the “biphasic elimination, during the first 10 h” value in data set [2] (first 10 h) is listed as 2 h. The “time to maximum plasma concentration” value in data set [2] is 1 to 2 h.
Take `Clc1ccc([C@@]2(Cn3ccnc3)OC[C@H](COc3ccc(N4CCNCC4)cc3)O2)c(Cl)c1` [M4 (DAK), N-deacetyl ketoconazole]: the “detection in rat plasma” value in data set [3] (Sprague Dawley) is listed as “No N-deacetyl ketoconazole (M4) was found”; in data set [3], “not detected”. Further, in data set [3] (Sprague Dawley, rat), the “Relative peak area abundance, COR” value is listed as 0.2%.
For `CC(=O)N1CCN(c2ccc(OC[C@H]3CO[C@](Cn4ccnc4)(c4ccc(Cl)cc4Cl)O3)cc2)CC1O` (some centres unmarked) [Metabolite M1], in data set [4] (setting [6]), the “Relative peak area abundance, COR” value is listed as “D (detected in trace amount (the relative abundance was less than 0.1 %))” and the “Relative peak area abundance, VH” value is listed as “D (detected in trace amount (the relative abundance was less than 0.1 %))”.
For the compound `OC[C@H]1CO[C@](Cn2ccnc2)(c2ccc(Cl)cc2Cl)O1` [Metabolite M2], in data set [4] (setting [6]), the “Relative peak area abundance, COR” value worked out at 1.1%; the “Relative peak area abundance, PLA” value was determined as 0.1%; the “Relative peak area abundance, VH” value worked out at 0.6%. In addition, in data set [4] (pooled rat retina homogenate (5, 30, 120 min), selected ion chromatographic peak areas), the “Relative peak area abundance, RET” value was 1.2%. The “abundance of dominant metabolite in cornea, retina” value in data set [4] (rat cornea, retina) is listed as 1.1-1.2%.
With `CC(=O)N1CCN(c2ccc(OC[C@H]3CO[C@](CN)(c4ccc(Cl)cc4Cl)O3)cc2)CC1` [Metabolite M6], in data set [4] (setting [6]), the “Relative peak area abundance, COR” value amounted to 0.1% and the “Relative peak area abundance, PLA” value was found to be 0.6%.

(Values after PMC11661808 (ADMET & DMPK, 2024).)
